Assay results: paper PMC6447596 (2019)

How the values were obtained:
[1] = system: F21D (DNA, G4) GGGTTAGGGTTAGGGTTAGGG; test: FRET melting; details: 5 mM K+, 95 mM Li+ (5 K buffer); 10 mM Li cacodylate pH 7.2; 0.2 µM F21D; sub-micromolar RHPS4; printed 'at least 15 °C'
[2] = system: Oligo A (DNA, G4) GGATGGGGTGGGGAGG; test: UV-Vis titration; details: 5 mM K+, 95 mM Li+ (5 K buffer); 10 mM Li cacodylate pH 7.2; 20 µM RHPS4 titrated with annealed oligo; two-state direct fit
[3] = system: Oligo B (DNA, G4) GGGGGATGCGGGGG; test: UV-Vis titration; details: 5 mM K+, 95 mM Li+ (5 K buffer); 10 mM Li cacodylate pH 7.2; 20 µM RHPS4 titrated with annealed oligo; two-state direct fit
[4] = system: Oligo A (DNA, G4) GGATGGGGTGGGGAGG; test: CD melting (264 nm); details: 5 mM K+, 95 mM Li+ (5 K buffer); 5 µM oligo; 2 eq RHPS4; 10 mM Li cacodylate pH 7.2
[5] = system: Oligo B (DNA, G4) GGGGGATGCGGGGG; test: CD melting (260 nm alone, 295 nm with RHPS4); details: 5 mM K+, 95 mM Li+ (5 K buffer); 5 µM oligo; 2 eq RHPS4; 10 mM Li cacodylate pH 7.2

What does the source list for `Cc1cc2c3c([n+](C)c4ccc(F)cc4c3c1)-c1cc(F)ccc1N2C`?
ΔTm [1]: 15 °C; Ka [2]: 0.5 ± 0.3 × 10^6 /M; Ka [3]: 0.5 ± 0.3 × 10^6 /M; melting temperature increase [4]: 7.2 °C; melting temperature increase [5]: 14.9 °C
